# Activity calls are given as the source filed them.
# Tests used:
# Large T antigen = Large T antigen (Simian virus 40, UniProt P03070); format: functional, Betapolyomavirus macacae;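 further: Confirmatory-stage PubChem screen for compounds that inhibit SV40 T antigen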
# [1] = target: Intestinal-type alkaline phosphatase (Homo sapiens, UniProt P09923); experiment: inhibition of human intestinal alkaline phosphatase – biochemical, dose response (AID 488876); format: functional
# [2] = target: Intestinal-type alkaline phosphatase (Mus musculus, UniProt P24822); experiment: PubChem AID 488785; format: functional
# [3] = target: T1, Alkaline phosphatase, tissue-nonspecific isozyme (Homo sapiens, UniProt P05186); experiment: TNAP enzyme inhibition by screening hits, dose response, selectivity assay for mouse IAP inhibitor project, biochemical, human TNAP, uHTS hits (AID 488906); format: functional
# T1 sequence (P05186 whole entry): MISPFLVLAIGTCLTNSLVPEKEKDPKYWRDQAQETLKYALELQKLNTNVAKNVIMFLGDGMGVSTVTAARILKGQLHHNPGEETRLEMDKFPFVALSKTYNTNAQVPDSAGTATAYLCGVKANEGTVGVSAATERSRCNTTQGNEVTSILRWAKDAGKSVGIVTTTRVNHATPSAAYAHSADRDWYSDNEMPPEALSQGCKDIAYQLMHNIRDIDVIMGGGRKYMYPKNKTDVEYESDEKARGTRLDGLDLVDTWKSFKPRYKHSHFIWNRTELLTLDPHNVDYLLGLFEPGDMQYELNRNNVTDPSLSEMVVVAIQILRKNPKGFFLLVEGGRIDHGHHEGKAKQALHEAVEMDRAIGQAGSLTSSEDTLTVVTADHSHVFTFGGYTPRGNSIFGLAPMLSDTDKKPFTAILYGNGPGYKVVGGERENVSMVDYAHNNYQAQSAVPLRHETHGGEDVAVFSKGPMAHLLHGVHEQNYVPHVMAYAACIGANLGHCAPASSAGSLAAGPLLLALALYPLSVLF
# Protein RecA = target: T2, Protein RecA (Mycobacterium tuberculosis, UniProt P9WHJ3); experiment: Fluorescence Cell-Free Homogeneous Dose Retest to Identify Inhibitors of RecA-Intein Splicing Activity. [Related pubchem assays (depositor defined):AID2097, AID2223, AID489010, AID492950]; format: functional
# T2 sequence (P9WHJ3 whole entry): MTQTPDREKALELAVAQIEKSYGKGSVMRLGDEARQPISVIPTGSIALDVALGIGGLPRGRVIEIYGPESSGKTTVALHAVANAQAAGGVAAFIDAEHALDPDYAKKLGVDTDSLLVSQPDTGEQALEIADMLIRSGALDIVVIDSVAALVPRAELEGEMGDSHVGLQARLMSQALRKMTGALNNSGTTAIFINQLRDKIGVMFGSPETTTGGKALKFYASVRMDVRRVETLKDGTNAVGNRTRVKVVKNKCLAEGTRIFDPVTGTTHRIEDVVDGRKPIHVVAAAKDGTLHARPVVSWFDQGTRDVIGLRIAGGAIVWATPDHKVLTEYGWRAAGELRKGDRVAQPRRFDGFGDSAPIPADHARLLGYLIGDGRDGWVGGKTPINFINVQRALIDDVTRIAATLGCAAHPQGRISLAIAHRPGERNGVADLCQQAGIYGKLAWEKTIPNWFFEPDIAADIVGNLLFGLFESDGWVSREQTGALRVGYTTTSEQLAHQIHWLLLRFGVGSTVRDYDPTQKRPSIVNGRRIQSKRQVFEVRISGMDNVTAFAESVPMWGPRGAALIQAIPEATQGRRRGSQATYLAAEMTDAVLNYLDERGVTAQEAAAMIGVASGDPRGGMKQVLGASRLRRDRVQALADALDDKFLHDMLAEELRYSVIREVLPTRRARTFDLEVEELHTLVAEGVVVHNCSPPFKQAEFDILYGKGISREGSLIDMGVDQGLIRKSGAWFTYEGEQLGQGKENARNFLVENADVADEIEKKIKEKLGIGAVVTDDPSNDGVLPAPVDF
# [4] = target: T3, Replicative DNA helicase DnaB (Mycobacterium tuberculosis, UniProt P9WMR3); experiment: DnaB intein splicing inhibitors, dose response, biochemical, cell-free fluorescence (AID 449749); format: functional
# T3 sequence (P9WMR3 whole entry): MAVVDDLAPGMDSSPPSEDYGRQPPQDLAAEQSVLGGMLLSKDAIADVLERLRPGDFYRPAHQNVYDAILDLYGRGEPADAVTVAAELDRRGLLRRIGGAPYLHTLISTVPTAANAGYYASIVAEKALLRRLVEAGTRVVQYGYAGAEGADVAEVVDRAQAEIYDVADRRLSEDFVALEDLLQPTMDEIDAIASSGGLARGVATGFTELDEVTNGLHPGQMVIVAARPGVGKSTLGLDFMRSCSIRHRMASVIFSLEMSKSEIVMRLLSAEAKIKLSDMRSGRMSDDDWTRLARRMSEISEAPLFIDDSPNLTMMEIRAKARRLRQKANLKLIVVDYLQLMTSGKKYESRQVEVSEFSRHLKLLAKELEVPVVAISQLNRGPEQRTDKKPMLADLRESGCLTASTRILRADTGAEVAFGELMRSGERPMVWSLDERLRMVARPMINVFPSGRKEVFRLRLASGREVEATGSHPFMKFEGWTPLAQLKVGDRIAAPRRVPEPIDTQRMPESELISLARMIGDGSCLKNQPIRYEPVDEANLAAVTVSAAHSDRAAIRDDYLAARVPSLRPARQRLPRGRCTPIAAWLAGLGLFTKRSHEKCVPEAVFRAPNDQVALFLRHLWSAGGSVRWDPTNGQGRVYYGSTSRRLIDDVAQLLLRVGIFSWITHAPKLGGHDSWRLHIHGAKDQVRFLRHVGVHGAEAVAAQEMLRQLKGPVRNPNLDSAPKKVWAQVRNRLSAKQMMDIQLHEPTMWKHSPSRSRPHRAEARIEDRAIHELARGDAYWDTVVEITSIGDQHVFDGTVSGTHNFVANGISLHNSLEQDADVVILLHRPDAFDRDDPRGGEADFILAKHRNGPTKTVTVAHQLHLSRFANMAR
# HEK293 [5] = experiment: cells; details: Homo sapiens
# Tumor necrosis factor = Tumor necrosis factor (Homo sapiens, UniProt P01375); experiment: analog potency on TNFa NF-kB signaling – cell-based, revised, SAR follow-up (AID 2337); format: functional
# [6] = target: Nucleotide-binding oligomerization domain-containing protein 1 (Homo sapiens, UniProt Q9Y239); experiment: blockers of NOD1 pathway activity – revised, SAR follow-up (AID 2333); format: functional
# [7] = target: Delta-type opioid receptor (Homo sapiens, UniProt P41143); experiment: Counterscreen for agonists of heterodimerization of the mu 1 (OPRM1) and delta 1 (OPRD1) opioid receptors: Luminescence-based cell-based high throughput dose response assay to identify agonists of OPRD1 homodimerization. [Related pubchem assays (depositor defined):AID504326, AID504355, AID504692, AID504904, AID504905]; format: functional
# [8] = target: 5-hydroxytryptamine receptor 5A (Homo sapiens, UniProt P47898); experiment: Counterscreen for agonists of OPRM1-OPRD1 heterodimerization: luminescence-based cell-based high throughput dose response assay to identify agonists of 5-hydroxytryptamine (serotonin) 5A receptor (HTR5A). [Related pubchem assays (depositor defined):AID504326, AID504355, AID504692, AID504904, AID504905]; format: functional
# [9] = target: Opioid receptors; mu & delta (Homo sapiens, UniProt P41143+P35372); experiment: OPRM1-OPRD1 heterodimer agonist potency – cell-based, luminescence, dose response (AID 588407); format: functional
# Mu-type opioid receptor = Mu-type opioid receptor (Homo sapiens, UniProt P35372); experiment: Counterscreen for agonists of heterodimerization of the mu 1 (OPRM1) and delta 1 (OPRD1) opioid receptors: Luminescence-based cell-based high throughput dose response assay to identify agonists of OPRM1 homodimerization.; format: functional;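 further: U2OS cells expressing OPRM1 and beta-arrestin as split beta-galactosidase partners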
# [10] = target: ATP-dependent molecular chaperone HSP82 (Candida albicans (strain WO-1) (Yeast), UniProt C4YTQ8); experiment: steroid-induced GRE reporter decrease in yeast – S. cerevisiae, luminescence, Hsp90 inhibitor project, dose response (AID 2400); format: functional, cell-based;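 further: beta-galactosidase luminescence from glucocorticoid response element reporter as proxy for Hsp90 function; inhibitor potency where signal loss means Hsp90 inhibition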
# [11] = NIH-3T3 fibroblast cytotoxicity, dose response, cytotoxicity control, cell-based, fluorescence, Alamar Blue, secondary assay (AID 2327); format: functional;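 further: NIH-3T3 mouse fibroblasts cultured with fluconazole at 8 µg/mL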
# [12] = target: Serine/threonine-protein phosphatase (Candida dubliniensis (strain CD36 / CBS 7987 / NCPF 3949 / NRRLY-17841) (Yeast), UniProt B9W6M3); experiment: blockers of CaCl2-induced CDRE-lacZ signaling – S. cerevisiae, luminescence, secondary, dose response (AID 2388); format: functional, cell-based;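 further: yeast reporter cells carrying a calcineurin-responsive lacZ construct stimulated with calcium chloride; luminescent beta-galactosidase reporter signal in whole cells rather than isolated phosphatase activity; potency for inhibition where a drop in reporter signal means calcineurin blockade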
# [13] = fluconazole-exposed Candida albicans growth modulators – fluorescence, retest, confirmation (AID 2467); format: functional, cell-based
# [14] = target: T4, Heat shock factor protein 1 (Mus musculus, UniProt P38532); experiment: enhancement of HSF1-driven luciferase signal – cell-based, NIH3T3, luminescence, dose retest, confirmation (AID 435004); format: functional;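 further: stress induced by proteasome inhibitor MG132 added 30 min after compound; luciferase reporter driven by HSF1 response element in NIH3T3 cells; actives raise luminescence as potentiators of the MG132 stress response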
# T4 sequence (P38532 whole entry): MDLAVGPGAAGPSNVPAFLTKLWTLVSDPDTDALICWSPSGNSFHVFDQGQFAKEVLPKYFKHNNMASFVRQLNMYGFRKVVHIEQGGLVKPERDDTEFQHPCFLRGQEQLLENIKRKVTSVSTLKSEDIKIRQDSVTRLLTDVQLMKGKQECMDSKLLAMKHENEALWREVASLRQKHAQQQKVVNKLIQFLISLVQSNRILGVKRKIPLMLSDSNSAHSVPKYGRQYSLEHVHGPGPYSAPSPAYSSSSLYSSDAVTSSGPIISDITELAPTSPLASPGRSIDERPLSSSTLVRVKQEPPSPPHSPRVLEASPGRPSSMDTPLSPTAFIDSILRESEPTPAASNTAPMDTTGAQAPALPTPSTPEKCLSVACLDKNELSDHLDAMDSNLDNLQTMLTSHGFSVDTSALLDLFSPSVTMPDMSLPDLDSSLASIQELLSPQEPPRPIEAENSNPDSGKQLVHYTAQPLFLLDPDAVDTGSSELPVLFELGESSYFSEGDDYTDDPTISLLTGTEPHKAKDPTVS
# [15] = target: Luciferin 4-monooxygenase (Photuris pensylvanica, UniProt Q27757); experiment: inhibition of Cell Titer Glo luciferase signal – biochemical, luminescence, cherry-picks, counter-screen for HSF-1 reporter inhibitor project, dose response (AID 588847)
# [16] = HEK-293T viability loss after treatment – luminescence, T-cell screen hits, cytotoxicity control for TCR NF-kB inhibitor project, dose response (AID 489026); format: functional, cell-based;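 further: cells exposed to compound about 14 hours before the viability readout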
# [17] = blockers of bursicon-stimulated LGR2 cAMP reporter – cell-based, HEK293, CRE-luciferase reporter, cherry pick, set 2, dose response (AID 743343); format: functional;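 further: transfected cells were stimulated with diluted bursicon conditioned medium after compound addition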
# [18] = target: T4, Heat shock factor protein 1; experiment: decrease of HSF1-responsive luciferase luminescence – cell-based, NIH3T3, dose retest, confirmation (AID 2382); format: functional;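 further: NIH3T3 fibroblasts with HSF1-driven luciferase reporter stressed by proteasome inhibitor MG132; luminescence from HSF1-driven luciferase expression after 8 hours of MG132 stress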
# [19] = A549 cell cytotoxicity, dose response, cytotoxicity control, plate reader, cherry-pick, antagonist series (AID 743412); format: functional, cell-based
# [20] = blockade of melanocortin 4 receptor signaling – cell-based, plate reader, cherry pick, counter-screen for LGR2 antagonist project, dose response (AID 743444); format: functional;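 further: transfected HEK 293 cells stimulated with alpha-MSH peptide; potency of inhibitors of the alpha-MSH evoked signal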
# [21] = viability loss in HEK293 cells – cell-based, plate reader, cherry-picked samples, cytotoxicity control, dose response (AID 743446); format: functional
# Keap1/Nrf2 = Keap1/Nrf2 (Homo sapiens, UniProt Q14145); experiment: disruptors of Keap1 binding to Nrf2 peptide – biochemical, fluorescence polarization, cherry-picked samples, dose response (AID 588683)
# HEK293 [22] = experiment: membrane integrity loss in HEK cells – cell-based, fluorescence, cytotoxicity control for IDE activator project, dose response (AID 588440); format: functional; details: Homo sapiens;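 further: cytotoxicity by LDH release measuring loss of membrane integrity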
# HEK293 [23] = experiment: optical interference in Abeta FP readout, dose response, artefact control for IDE activator project, biochemical, fluorescence polarization (AID 588442); format: functional, cell-based; details: Homo sapiens
# INS1 = experiment: INS-1E survival protection against cytokine death – cell-based, luminescence, retest, dose response (AID 449756); format: functional; details: Rattus norvegicus;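 further: cell death triggered by IL-1 beta plus TNF-alpha plus IFN-gamma mixture; protective hits raise ATP signal compared with cytokine alone wells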
# HeLa = experiment: ATP-based viability loss in HeLa cells – cell-based, CellTiter-Glo luminescence, cherry-pick samples, cytotoxicity control for MITF activator project, dose response (AID 540259); format: functional; details: Homo sapiens
compound,measurement,setting,value
Oc1cc(O)c2c(c1)O[C@H](c1ccc(O)c(O)c1)[C@@H](O)C2,IC50,Large T antigen,11.4 µM (active)
same,IC50,[1],> 100 µM (inactive)
same,IC50,[2],15.5 µM (active)
same,IC50,[3],37.1 µM (active)
same,EC50,Protein RecA,4.11 µM (active)
same,AC50,[4],22.2 µM (active)
COc1ccc(N2CCN(S(=O)(=O)c3ccc4c(c3)CC(C)N4C(=O)C3CC3)CC2)cc1 (centres undefined),IC50,HEK293 [5],> 20 µM (inactive)
same,IC50,Tumor necrosis factor,3.85 µM (active)
same,IC50,[6],0.506 µM (active)
c1ccc(C2[C@H]3CN(Cc4cccnc4)[C@H](c4ccccc4)C34CC2(c2cccnc2)C4)cc1 (some centres undefined),EC50,Protein RecA,16.7 µM (active)
same,EC50,[7],3.21 µM (active)
same,EC50,[8],> 92.5 µM (inactive)
same,AC50,[4],3.72 µM (active)
same,EC50,[9],> 3.424 µM
same,EC50,Mu-type opioid receptor,> 92.5 µM (inactive)
CCC(C)n1cnc2c(c1=O)c1nc3ccccc3nc1n2Cc1ccc(OC)cc1 (centres undefined),EC50,[10],14.7 µM (active)
same,EC50,[11],47.7 µM (active)
same,EC50,[12],> 180 µM (inactive)
same,EC50,[13],0.356 µM (active)
same,EC50,[14],> 260 µM (inactive)
CC1CCCN(c2ncnc3c2cnn3-c2ccc(Cl)cc2)C1 (centres undefined),AC50,[15],1.34 µM (active)
same,IC50,[16],> 80 µM (inactive)
same,AC50,[17],< 0.068 µM (active)
same,EC50,[18],< 0.16 µM (active)
same,AC50,[19],> 52 µM (inactive)
same,AC50,[20],0.155 µM (active)
same,AC50,[21],> 52 µM (inactive)
Cc1cc[n+](-c2[n-]c(=O)sc2C=NNC(=S)Nc2ccccc2)cc1C,AC50,Keap1/Nrf2,> 52 µM (inactive)
Clc1ccc(C(c2ccc(Cl)cc2)[n+]2ccn(CC(OCc3ccc(Cl)cc3Cl)c3ccc(Cl)cc3Cl)c2)cc1.[Cl-] (centres undefined) [CALMIDAZOLIUM CHLORIDE],IC50,HEK293 [22],2.01 µM (active)
same,EC50,HEK293 [23],> 54.7 µM (inactive)
same,AC50,INS1,2.56 µM (active)
same,EC50,[9],> 3.426 µM
COc1ccc(COc2ccc3ccc(=O)oc3c2)cc1,AC50,HeLa,93.8 µM (active)
CCc1ccc(C(=O)NC2CCCCC2)s1,AC50,HeLa,87.6 µM (active)
